14 molecules from patent US20230089867A1, “CYCLIC PENTAMER COMPOUNDS AS PROPROTEIN CONVERTASE SUBTILISIN/KEXIN TYPE 9 (PCSK9) INHIBITORS FOR THE TREATMENT OF METABOLIC DISORDER” (Novartis AG, priority 2018, published 2023) can be followed below.

This assay concerns the target human PCSK9 (Homo sapiens, UniProt Q8NBP7). Nature of the assay: PCSK9 ligand binding TR-FRET assay (interference with binding of human PCSK9 to human LDLR). To be noted: for Max % inhibition: PCSK9 FRET assay, efficacy (Amax), 100% = 1 uM unlabeled human PCSK9, 0% = DMSO; for IC50: TR-FRET, human PCSK9 Alexa Fluor 647 / human LDLR extracellular domain-Europium Kryptate, read-out: PCSK9 FRET Assay IC50. In outline:
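Threefold compound dilutions were pre-incubated 30 min with PCSK9, after which 4 nM Europium Kryptate-tagged human LDLR ectodomain was added for a further 2 h.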

Sequence of human PCSK9 (Q8NBP7 153-692): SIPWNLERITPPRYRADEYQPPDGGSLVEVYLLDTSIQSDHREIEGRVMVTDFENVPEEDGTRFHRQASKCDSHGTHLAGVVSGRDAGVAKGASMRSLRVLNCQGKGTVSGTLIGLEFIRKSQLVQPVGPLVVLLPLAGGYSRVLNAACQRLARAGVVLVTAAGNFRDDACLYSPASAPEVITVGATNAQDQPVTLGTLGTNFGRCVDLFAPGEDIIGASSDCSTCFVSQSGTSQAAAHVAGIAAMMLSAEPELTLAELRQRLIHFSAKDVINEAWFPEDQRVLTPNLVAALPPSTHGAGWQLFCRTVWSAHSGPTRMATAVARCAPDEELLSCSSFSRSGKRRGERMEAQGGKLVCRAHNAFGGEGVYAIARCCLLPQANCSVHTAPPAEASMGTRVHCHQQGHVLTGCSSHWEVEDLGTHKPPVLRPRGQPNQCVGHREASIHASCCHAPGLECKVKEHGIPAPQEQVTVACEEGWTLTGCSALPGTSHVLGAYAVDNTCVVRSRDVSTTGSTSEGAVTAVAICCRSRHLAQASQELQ
Sequence of human PCSK9 (Q8NBP7 31-152 partner limits assumed): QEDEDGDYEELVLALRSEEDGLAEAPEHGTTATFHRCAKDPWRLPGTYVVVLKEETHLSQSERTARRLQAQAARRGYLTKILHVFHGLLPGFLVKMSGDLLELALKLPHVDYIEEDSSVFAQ

A word on the IC50: it is the concentration that gives 50% inhibition. Consider `CCC[C@@H](O)[C@@H]1CC(=O)N(Cc2ccc(Cl)cc2Oc2ccc(-c3cnc(CN(C)C)n3C)cc2)[C@@H](C)C(=O)N[C@@H](COC)C(=O)N(C)[C@@H](Cc2ccc(Cl)cc2)CC(=O)NC[C@H](C)N(C)C1=O` [Compound 75, (2S,5S,8S,13S,16S)-1-(4-chloro-2-(4-(2-((dimethylamino)methyl)-1-methyl-1H-imidazol-5-yl)phenoxy)benzyl)-8-(4-chlorobenzyl)-16-((R)-1-hydroxybutyl)-5-(methoxymethyl)-2,7,13,14-tetramethyl-1,4,7,11,14-pentaazacyclooctadecane-3,6,10,15,18-pentaone], for which the Max % inhibition was 103.69% and the IC50 stood at 4 nM.

Consider `C[C@@H]1C(=O)N[C@@H](CO)C(=O)N(C)[C@@H](Cc2ccc(Cl)cc2)CC(=O)N[C@H]2CCCC[C@@H]2N(C)C(=O)[C@H](Cc2ccccc2)CC(=O)N1Cc1ccc(Cl)cc1Oc1ccc(-c2cnc(CN(C)C)n2C)cc1` [Compound 194, (4S,7S,10R,14R,16aS,20aS)-14-benzyl-11-(4-chloro-2-(4-(2-((dimethylamino)methyl)-1-methyl-1H-imidazol-5-yl)phenoxy)benzyl)-4-(4-chlorobenzyl)-7-(hydroxymethyl)-5,10,16-trimethylhexadecahydrobenzo[l][1,4,7,11,14]pentaazacyclooctadecine-2,6,9,12,15(3H)-pentaone], for which the Max % inhibition amounted to 96.92% and the IC50 was found to be 5.5 nM.

`C[C@H]1CNC(=O)C[C@H](Cc2ccc(Cl)cc2)N(C)C(=O)[C@H](CO)NC(=O)[C@H](C)N(Cc2ccc(Cl)cc2Oc2ccc3c(c2)C(=O)N(C2CCN(C)CC2)C3)C(=O)C[C@@H](Cc2ccccc2)C(=O)N1C` [Compound 130, (2S,5S,8S,13S,16R)-16-benzyl-1-(4-chloro-2-((2-(1-methylpiperidin-4-yl)-3-oxoisoindolin-5-yl)oxy)benzyl)-8-(4-chlorobenzyl)-5-(hydroxymethyl)-2,7,13,14-tetramethyl-1,4,7,11,14-pentaazacyclooctadecane-3,6,10,15,18-pentaone]: the Max % inhibition worked out at 77.42% and the IC50 was 20.3 nM.

As to `COC[C@@H]1NC(=O)C(C)N(Cc2ccc(F)cc2Oc2ccc(-c3cnc(CN(C)C)n3C)cc2)C(=O)C[C@@H](Cc2ccccc2)C(=O)N(C)[C@H]2CCCC[C@@H]2NC(=O)C[C@H](Cc2ccc(Cl)cc2)N(C)C1=O` (stereo partly drawn) [Compound 228, (4S,7S,14R,16aS,20aS)-14-benzyl-4-(4-chlorobenzyl)-11-(2-(4-(2-((dimethylamino)methyl)-1-methyl-1H-imidazol-5-yl)phenoxy)-4-fluorobenzyl)-7-(methoxymethyl)-5,10,16-trimethylhexadecahydrobenzo[l][1,4,7,11,14]pentaazacyclooctadecine-2,6,9,12,15(3H)-pentaone], the Max % inhibition stood at 93.92% and the IC50 stood at 8.4 nM.

For the molecule `COC[C@@H]1NC(=O)[C@H](CC(=O)N2CC(C)(O)C2)N(Cc2ccc(Cl)cc2Oc2ccc(-c3cnc(CN(C)C)n3C)cc2)C(=O)C[C@@H](Cc2ccccc2)C(=O)N(C)C2CCCCC2NC(=O)C[C@H](Cc2ccc(Cl)cc2)N(C)C1=O` (stereo in doubt) [Compound 52, (4S,7S,10S,14R,16aS,20aS)-14-benzyl-11-(4-chloro-2-(4-(2-((dimethylamino)methyl)-1-methyl-1H-imidazol-5-yl)phenoxy)benzyl)-4-(4-chlorobenzyl)-10-(2-(3-hydroxy-3-methylazetidin-1-yl)-2-oxoethyl)-7-(methoxymethyl)-5,16-dimethylhexadecahydrobenzo[l][1,4,7,11,14]pentaazacyclooctadecine-2,6,9,12,15(3H)-pentaone], the Max % inhibition came to 104.32% and the IC50 stood at 1.5 nM.

Consider `COC[C@@H]1NC(=O)[C@@H](C)N(Cc2ccc(Cl)cc2Oc2ccc(-c3cnc(CN(C)C)n3C)cc2)C(=O)C[C@@H](Cc2ccccc2)C(=O)N(C)[C@@H](C)CNC(=O)C[C@H](Cc2ccc(Cl)cc2)N(C)C1=O` [Compound 12, (2R,5S,8S,13S,16R)-16-benzyl-1-(4-chloro-2-(4-(2-((dimethylamino)methyl)-1-methyl-1H-imidazol-5-yl)phenoxy)benzyl)-8-(4-chlorobenzyl)-5-(methoxymethyl)-2,7,13,14-tetramethyl-1,4,7,11,14-pentaazacyclooctadecane-3,6,10,15,18-pentaone], for which the Max % inhibition turned out to be 98.09% and the IC50 was found to be 74.1 nM.

As for `CCC/C=C/c1ncc(-c2ccc(Oc3cc(Cl)ccc3CN3C(=O)C[C@@H](Cc4ccccc4)C(=O)N(C)[C@@H](C)CNC(=O)C[C@H](Cc4ccc(Cl)cc4)N(C)C(=O)[C@H](COC)NC(=O)[C@@H]3C)cc2)n1C` [Compound 81, (2S,5S,8S,13S,16R)-16-benzyl-1-(4-chloro-2-(4-(1-methyl-2-((E)-pent-1-en-1-yl)-1H-imidazol-5-yl)phenoxy)benzyl)-8-(4-chlorobenzyl)-5-(methoxymethyl)-2,7,13,14-tetramethyl-1,4,7,11,14-pentaazacyclooctadecane-3,6,10,15,18-pentaone], the Max % inhibition amounted to 87.86% and the IC50 turned out to be 34.5 nM.

As to `C[C@H]1C(=O)N[C@@H](CO)C(=O)N(C)[C@@H](Cc2ccc(Cl)cc2)CC(=O)N[C@H]2CCCC[C@@H]2N(C)C(=O)[C@H](Cc2ccccc2)CC(=O)N1Cc1ccc(Cl)cc1Oc1ccc(-c2cnc(CN(C)C)n2C)cc1` [Compound 243, (4S,7S,10S,14R,16aS,20aS)-14-benzyl-11-(4-chloro-2-(4-(2-((dimethylamino)methyl)-1-methyl-1H-imidazol-5-yl)phenoxy)benzyl)-4-(4-chlorobenzyl)-7-(hydroxymethyl)-5,10,16-trimethylhexadecahydrobenzo[l][1,4,7,11,14]pentaazacyclooctadecine-2,6,9,12,15(3H)-pentaone], the Max % inhibition is 97.38% and the IC50 came out at 0.9 nM.

With `COC[C@H]1CNC(=O)C[C@H](Cc2ccc(Cl)cc2)N(C)C(=O)[C@H](COC)NC(=O)[C@H](C)N(Cc2ccc(Cl)cc2Oc2ccc(-c3cnc(CN(C)C)n3C)cc2)C(=O)C[C@@H](Cc2ccccc2)C(=O)N1C` [Compound 27, (2S,5S,8S,13R,16R)-16-benzyl-1-(4-chloro-2-(4-(2-((dimethylamino)methyl)-1-methyl-1H-imidazol-5-yl)phenoxy)benzyl)-8-(4-chlorobenzyl)-5,13-bis(methoxymethyl)-2,7,14-trimethyl-1,4,7,11,14-pentaazacyclooctadecane-3,6,10,15,18-pentaone], the Max % inhibition came out at 101.53% and the IC50 is 1.1 nM.

Turning to `COC[C@@H]1NC(=O)[C@H](CCCNC(=O)OC(C)(C)C)N(Cc2ccc(Cl)cc2Oc2ccc(-c3cnc(CN(C)C)n3C)cc2)C(=O)C[C@@H](Cc2ccccc2)C(=O)N(C)[C@H]2CCCC[C@@H]2NC(=O)C[C@H](Cc2ccc(Cl)cc2)N(C)C1=O` [Compound 182, tert-butyl (3-((4S,7S,10S,14R,16aS,20aS)-14-benzyl-11-(4-chloro-2-(4-(2-((dimethylamino)methyl)-1-methyl-1H-imidazol-5-yl)phenoxy)benzyl)-4-(4-chlorobenzyl)-7-(methoxymethyl)-5,16-dimethyl-2,6,9,12,15-pentaoxodocosahydrobenzo[l][1,4,7,11,14]pentaazacyclooctadecin-10-yl)propyl)carbamate], the Max % inhibition came out at 99.86% and the IC50 is 1.2 nM.

As for `CCc1ncc(-c2ccc(Oc3cc(Cl)ccc3CN3C(=O)C[C@@H](Cc4ccccc4)C(=O)N(C)[C@@H](C)CNC(=O)C[C@H](Cc4ccc(Cl)cc4)N(C)C(=O)[C@H](COC)NC(=O)[C@@H]3C)cc2)n1C` [Compound 181, (2S,5S,8S,13S,16R)-16-benzyl-1-(4-chloro-2-(4-(2-ethyl-1-methyl-1H-imidazol-5-yl)phenoxy)benzyl)-8-(4-chlorobenzyl)-5-(methoxymethyl)-2,7,13,14-tetramethyl-1,4,7,11,14-pentaazacyclooctadecane-3,6,10,15,18-pentaone], the Max % inhibition is listed as 54.93% and the IC50 amounted to 10.3 nM.

Take `COC[C@@H]1NC(=O)[C@H](C)N(Cc2ccc(C)cc2Oc2ccc(-c3cnc(CN(C)C)n3C)cc2)C(=O)C[C@@H](Cc2ccccc2)C(=O)N(C)[C@@H](C)[C@H](C)NC(=O)C[C@H](Cc2ccc(Cl)cc2)N(C)C1=O` [Compound 102, (2S,5S,8S,12S,13S,16R)-16-benzyl-8-(4-chlorobenzyl)-1-(2-(4-(2-((dimethylamino)methyl)-1-methyl-1H-imidazol-5-yl)phenoxy)-4-methylbenzyl)-5-(methoxymethyl)-2,7,12,13,14-pentamethyl-1,4,7,11,14-pentaazacyclooctadecane-3,6,10,15,18-pentaone]: the Max % inhibition is reported as 101.56% and the IC50 stood at 1.5 nM.

In the case of `COC[C@@H]1NC(=O)[C@H](C)N(Cc2ccc(Cl)cc2Oc2ccc(-c3cnc(CN4CCCC4)n3C)cc2)C(=O)C[C@@H](Cc2ccccc2)C(=O)N(C)C2CCOCC2NC(=O)C[C@H](Cc2ccc(Cl)cc2)N(C)C1=O` (single isomer, unassigned) [Compound 274], the Max % inhibition is 93.20% and the IC50 was 1.4 nM.

With `COC[C@@H]1NC(=O)[C@H](C)N(Cc2ccc(Cl)cc2Oc2ccc(-c3cnc(CN(C)C)n3C)cc2)C(=O)C[C@@H](C)C(=O)N(C)[C@@H](C)CNC(=O)C[C@H](Cc2ccc(Cl)cc2)N(C)C1=O` [Compound 161, (2S,5S,8S,13S,16R)-1-(4-chloro-2-(4-(2-((dimethylamino)methyl)-1-methyl-1H-imidazol-5-yl)phenoxy)benzyl)-8-(4-chlorobenzyl)-5-(methoxymethyl)-2,7,13,14,16-pentamethyl-1,4,7,11,14-pentaazacyclooctadecane-3,6,10,15,18-pentaone], the Max % inhibition was 92.62% and the IC50 worked out at 14.7 nM.
